# Measurements: patent publication US6245521A, “Assay for evaluating the affinity of compounds to the glutamate GluR5 receptor” (Eli Lilly and Company, priority 1999, dated 2001)
# Columns and labels:
# [1] = biological target: T1, human GluR4 (Homo sapiens, UniProt P48058); experiment: ATPA selectivity profile in binding studies, displacement of 3[H] AMPA; details: HEK293 cells stably transfected with human GluR4
# T1 construct: expressed in transfected cells; host or cells: HEK293
# Procedure: (§1) Activity of compounds acting at the kainate receptor, GluR5, can be determined by radiolabeled ligand binding studies at the cloned and expressed human GluR5 receptor (Korczak et al., 1994, Recept. Channels 3; 41-49), and by whole cell voltage clamp electrophysiological recordings of currents in acutely isolated rat dorsal root ganglion neurons (Bleakman et al., 1996, Mol. Pharmacol. 49; 581-585). The selectivity of compounds acting at GluR5 receptors is determined by measurement of activity at other AMPA and kainate receptors including receptor-ligand binding studies and whole-cell voltage clamp electrophysiological recordings of functional activity at human GluR1-GluR4 receptors (Fletcher et al., 1995, Recept. Channels 3; 21-31), at human GluR6 receptors (Hoo et al., Recept. Channels 2;327-338), at AMPA receptors in acutely isolated cerebellar Purkinje neurons (Bleakman et al., 1996, Mol. Pharmacol. 49; 581-585), and other tissues expressing AMPA receptors (Fletcher and Lodge, 1996, Pharmacol. Ther. 70; 65-89).
# (§2) Cell lines (HEK293 cells) stably transfected with human GluR receptors were employed. Displacement of ^3 [H] AMPA by increasing concentrations of ATPA was used on GluR1-4-expressing cells and ^3 [H] kainate (KA) on GluR5, 6, 7 KA2-expressing cells.
# [2] = biological target: T2, human GluR2 (Homo sapiens, UniProt P42262); experiment: as above; details: HEK293 cells stably transfected with human GluR2
# T2 construct: expressed in transfected cells; host or cells: HEK293
# Procedure: as §1, §2
# [3] = system: CA1 pyramidal neurons; experiment: Electrophysiological test of synaptic transmission in the hippocampus; type: cell-based; details: ATPA 1 μM
# Source text: As mentioned above, ATPA modulates synaptic transmission in the hippocampus. […] It is further believed that such selective modulation of GluR5 is likely to show benefits in the treatment of cognitive function.
# [4] = biological target: T3, human GluR5 (Homo sapiens, UniProt P39086); experiment: ATPA selectivity profile in binding studies, displacement of 3[H] kainate
# T3 construct: expressed in transfected cells; host or cells: HEK293
# Procedure: as §1, §2
# [5] = biological target: T4, human GluR7 (Homo sapiens, UniProt Q13003); experiment: as above; details: HEK293 cells stably transfected with human GluR7
# T4 construct: expressed in transfected cells; host or cells: HEK293
# Procedure: as §1
# (§3) Cell lines (HEK293 cells) stably transfected with human GluR receptors were employed. Displacement of ^3 [H] AMPA by increasing concentrations of ATPA was used on GluR1-4-expressing cells and ^3 [H] kainate (KA) on GluR5, 6, 7 KA2-expressing cells. Estimated activity (Ki) in nM was as follows.
# [6] = biological target: T5, human GluR6 (Homo sapiens, UniProt Q13002); experiment: as above; details: HEK293 cells stably transfected with human GluR6
# T5 construct: expressed in transfected cells; host or cells: HEK293
# Procedure: as §1, §3
# [7] = biological target: T6, human KA2 (Homo sapiens, UniProt Q16478); experiment: as above; details: HEK293 cells stably transfected with human KA2
# T6 construct: expressed in transfected cells; host or cells: HEK293
# T6 sequence (Q16478 15-980): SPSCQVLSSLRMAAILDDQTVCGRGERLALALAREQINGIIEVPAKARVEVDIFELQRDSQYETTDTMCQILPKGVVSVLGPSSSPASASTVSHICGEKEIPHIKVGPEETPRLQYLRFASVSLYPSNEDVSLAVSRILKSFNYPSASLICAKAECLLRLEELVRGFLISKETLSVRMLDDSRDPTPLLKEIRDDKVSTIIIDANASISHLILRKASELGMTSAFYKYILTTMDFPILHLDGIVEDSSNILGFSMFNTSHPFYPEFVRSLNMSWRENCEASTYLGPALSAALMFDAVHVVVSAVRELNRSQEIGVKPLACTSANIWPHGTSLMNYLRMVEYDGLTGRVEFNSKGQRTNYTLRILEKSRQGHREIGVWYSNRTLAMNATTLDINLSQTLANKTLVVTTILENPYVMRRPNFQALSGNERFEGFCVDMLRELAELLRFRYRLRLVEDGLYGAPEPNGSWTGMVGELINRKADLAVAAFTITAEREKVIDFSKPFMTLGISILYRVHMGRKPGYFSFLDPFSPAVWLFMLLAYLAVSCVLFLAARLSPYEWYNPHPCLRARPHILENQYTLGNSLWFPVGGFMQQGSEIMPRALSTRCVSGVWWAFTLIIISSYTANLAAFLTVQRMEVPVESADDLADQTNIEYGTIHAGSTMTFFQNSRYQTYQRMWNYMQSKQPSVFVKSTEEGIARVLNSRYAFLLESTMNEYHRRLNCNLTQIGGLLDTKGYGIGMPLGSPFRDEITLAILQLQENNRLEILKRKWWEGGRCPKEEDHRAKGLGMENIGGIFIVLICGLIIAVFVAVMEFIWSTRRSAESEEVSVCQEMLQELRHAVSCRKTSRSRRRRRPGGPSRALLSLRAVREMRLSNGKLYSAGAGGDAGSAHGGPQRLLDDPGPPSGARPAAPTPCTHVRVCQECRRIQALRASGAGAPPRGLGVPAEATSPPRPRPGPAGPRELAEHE
# Procedure: as §1, §3
# [8] = biological target: T7, human GluR3 (Homo sapiens, UniProt P42263); experiment: Electrophysiological (patch-clamp) functional studies on transfected HEK293 cells; type: cell-based; details: vs 100 mμ AMPA
# T7 construct: expressed in transfected cells; host or cells: HEK293
# Procedure: as §1
# (§4) Functional studies were carried out on HEK293 cells stably transfected with human GluR receptors and on acutely isolated dorsal root ganglion neurons (DRG) using patch-clamp technology (Bleakman et al., 1996, Mol. Pharmacol., 49, 581-585). EC50 values (mμ) for ATPA were estimated for GluR1-4 vs 100 mμAMPA, GluR5 vs 100 mμ KA, GluR6 vs 1 mμ KA, and DRG vs 30 mμ KA, with the following results: […]
# [9] = biological target: T8, human GluR1 (Homo sapiens, UniProt P42261); experiment: as above; type: cell-based; details: vs 100 mμ AMPA
# T8 construct: expressed in transfected cells; host or cells: HEK293
# Procedure: as §1, §4
# [10] = biological target: T5, human GluR6; experiment: as above; type: cell-based; details: vs 1 mμ KA
# Procedure: as §1, §4
# [11] = biological target: T1, human GluR4; experiment: as above; type: cell-based; details: vs 100 mμ AMPA
# Procedure: as §1
# (§5) Functional studies were carried out on HEK293 cells stably transfected with human GluR receptors and on acutely isolated dorsal root ganglion neurons (DRG) using patch-clamp technology (Bleakman et al., 1996, Mol. Pharmacol., 49, 581-585).
# [12] = biological target: T3, human GluR5; experiment: as above; type: cell-based
# Procedure: as §1, §5
# [13] = biological target: T2, human GluR2; experiment: as above; type: cell-based; details: vs 100 mμ AMPA
# Procedure: as §1, §5
# [14] = biological target: T8, human GluR1; experiment: ATPA selectivity profile in binding studies, displacement of 3[H] AMPA; details: HEK293 cells stably transfected with human GluR1
# Procedure: as §1, §3
# [15] = system: dorsal root ganglion neurons (DRG); experiment: Patch-clamp functional studies on acutely isolated dorsal root ganglion neurons; type: cell-based; details: Rattus norvegicus, Neuron, vs 30 mμ KA
# Procedure: as §1
# Functional studies were carried out on HEK293 cells stably transfected with human GluR receptors and on acutely isolated dorsal root ganglion neurons (DRG) using patch-clamp technology (Bleakman et al., 1996, Mol. Pharmacol., 49, 581-585). […]
# T3 sequence (P39086 31-905 isoform P39086-2 limits assumed): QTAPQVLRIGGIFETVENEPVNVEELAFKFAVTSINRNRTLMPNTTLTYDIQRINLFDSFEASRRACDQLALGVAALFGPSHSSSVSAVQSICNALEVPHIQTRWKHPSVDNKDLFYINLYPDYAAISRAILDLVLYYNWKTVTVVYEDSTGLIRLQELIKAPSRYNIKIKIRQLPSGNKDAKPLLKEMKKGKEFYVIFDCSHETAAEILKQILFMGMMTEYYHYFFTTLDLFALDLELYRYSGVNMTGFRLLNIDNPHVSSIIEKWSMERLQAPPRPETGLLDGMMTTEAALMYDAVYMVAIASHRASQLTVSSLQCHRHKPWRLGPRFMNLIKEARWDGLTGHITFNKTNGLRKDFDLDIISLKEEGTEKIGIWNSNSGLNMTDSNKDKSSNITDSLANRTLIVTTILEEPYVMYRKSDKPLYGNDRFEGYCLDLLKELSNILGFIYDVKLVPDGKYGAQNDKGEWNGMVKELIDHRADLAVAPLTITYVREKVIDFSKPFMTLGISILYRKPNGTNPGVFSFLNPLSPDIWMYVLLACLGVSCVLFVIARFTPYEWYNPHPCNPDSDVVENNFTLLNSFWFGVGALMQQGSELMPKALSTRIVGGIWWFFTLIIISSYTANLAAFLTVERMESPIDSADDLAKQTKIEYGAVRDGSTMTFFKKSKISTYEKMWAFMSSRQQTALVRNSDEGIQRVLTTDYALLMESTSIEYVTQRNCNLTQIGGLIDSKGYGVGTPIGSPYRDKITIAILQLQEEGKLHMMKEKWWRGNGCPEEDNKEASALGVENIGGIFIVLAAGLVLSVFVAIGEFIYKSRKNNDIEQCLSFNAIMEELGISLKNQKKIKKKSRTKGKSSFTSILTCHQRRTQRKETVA
# T1 sequence (P48058 21-902): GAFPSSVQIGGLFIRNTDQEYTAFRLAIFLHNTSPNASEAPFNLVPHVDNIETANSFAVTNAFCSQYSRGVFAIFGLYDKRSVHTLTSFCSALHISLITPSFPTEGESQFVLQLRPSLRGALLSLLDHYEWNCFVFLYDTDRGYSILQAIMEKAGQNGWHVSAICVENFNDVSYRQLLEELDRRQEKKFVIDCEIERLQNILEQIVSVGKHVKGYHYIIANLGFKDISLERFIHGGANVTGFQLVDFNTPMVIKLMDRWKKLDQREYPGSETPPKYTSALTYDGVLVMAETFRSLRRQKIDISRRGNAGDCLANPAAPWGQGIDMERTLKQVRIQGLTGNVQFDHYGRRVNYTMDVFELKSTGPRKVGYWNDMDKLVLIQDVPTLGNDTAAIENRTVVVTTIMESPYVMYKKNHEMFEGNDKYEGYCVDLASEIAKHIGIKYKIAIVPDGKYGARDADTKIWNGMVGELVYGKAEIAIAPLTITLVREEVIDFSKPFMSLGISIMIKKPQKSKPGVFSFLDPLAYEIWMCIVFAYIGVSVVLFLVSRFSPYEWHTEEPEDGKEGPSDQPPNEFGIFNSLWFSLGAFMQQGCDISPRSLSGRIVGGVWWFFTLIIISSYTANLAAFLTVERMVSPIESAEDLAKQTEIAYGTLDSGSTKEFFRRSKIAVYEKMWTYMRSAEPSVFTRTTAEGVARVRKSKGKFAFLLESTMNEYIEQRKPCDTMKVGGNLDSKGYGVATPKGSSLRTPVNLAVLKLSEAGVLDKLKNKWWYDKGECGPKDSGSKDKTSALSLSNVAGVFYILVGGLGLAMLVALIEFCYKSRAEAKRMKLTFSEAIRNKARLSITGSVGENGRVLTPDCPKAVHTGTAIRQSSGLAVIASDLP
# T2 sequence (P42262 25-883): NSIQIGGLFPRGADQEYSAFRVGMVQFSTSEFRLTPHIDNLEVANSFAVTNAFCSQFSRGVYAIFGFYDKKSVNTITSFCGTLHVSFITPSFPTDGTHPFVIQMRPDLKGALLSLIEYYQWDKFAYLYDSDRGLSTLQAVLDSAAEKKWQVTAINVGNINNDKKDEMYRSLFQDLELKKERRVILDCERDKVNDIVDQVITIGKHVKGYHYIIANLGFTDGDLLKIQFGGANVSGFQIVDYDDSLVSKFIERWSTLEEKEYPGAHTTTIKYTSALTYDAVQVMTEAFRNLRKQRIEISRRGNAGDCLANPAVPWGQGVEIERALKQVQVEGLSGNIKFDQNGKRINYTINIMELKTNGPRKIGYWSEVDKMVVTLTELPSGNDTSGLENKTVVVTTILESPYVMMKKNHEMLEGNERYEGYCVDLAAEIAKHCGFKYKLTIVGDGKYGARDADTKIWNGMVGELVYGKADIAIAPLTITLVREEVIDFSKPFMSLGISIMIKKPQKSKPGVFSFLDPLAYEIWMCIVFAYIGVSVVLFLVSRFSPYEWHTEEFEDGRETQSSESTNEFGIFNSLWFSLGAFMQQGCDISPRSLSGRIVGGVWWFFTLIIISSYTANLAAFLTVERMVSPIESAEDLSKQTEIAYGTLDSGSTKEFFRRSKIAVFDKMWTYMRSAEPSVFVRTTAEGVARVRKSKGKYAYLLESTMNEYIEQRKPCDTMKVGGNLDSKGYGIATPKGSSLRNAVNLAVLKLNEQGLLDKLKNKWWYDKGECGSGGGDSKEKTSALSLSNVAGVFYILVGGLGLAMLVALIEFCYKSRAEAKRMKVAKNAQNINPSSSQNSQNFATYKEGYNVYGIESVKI
# T8 sequence (P42261 19-906): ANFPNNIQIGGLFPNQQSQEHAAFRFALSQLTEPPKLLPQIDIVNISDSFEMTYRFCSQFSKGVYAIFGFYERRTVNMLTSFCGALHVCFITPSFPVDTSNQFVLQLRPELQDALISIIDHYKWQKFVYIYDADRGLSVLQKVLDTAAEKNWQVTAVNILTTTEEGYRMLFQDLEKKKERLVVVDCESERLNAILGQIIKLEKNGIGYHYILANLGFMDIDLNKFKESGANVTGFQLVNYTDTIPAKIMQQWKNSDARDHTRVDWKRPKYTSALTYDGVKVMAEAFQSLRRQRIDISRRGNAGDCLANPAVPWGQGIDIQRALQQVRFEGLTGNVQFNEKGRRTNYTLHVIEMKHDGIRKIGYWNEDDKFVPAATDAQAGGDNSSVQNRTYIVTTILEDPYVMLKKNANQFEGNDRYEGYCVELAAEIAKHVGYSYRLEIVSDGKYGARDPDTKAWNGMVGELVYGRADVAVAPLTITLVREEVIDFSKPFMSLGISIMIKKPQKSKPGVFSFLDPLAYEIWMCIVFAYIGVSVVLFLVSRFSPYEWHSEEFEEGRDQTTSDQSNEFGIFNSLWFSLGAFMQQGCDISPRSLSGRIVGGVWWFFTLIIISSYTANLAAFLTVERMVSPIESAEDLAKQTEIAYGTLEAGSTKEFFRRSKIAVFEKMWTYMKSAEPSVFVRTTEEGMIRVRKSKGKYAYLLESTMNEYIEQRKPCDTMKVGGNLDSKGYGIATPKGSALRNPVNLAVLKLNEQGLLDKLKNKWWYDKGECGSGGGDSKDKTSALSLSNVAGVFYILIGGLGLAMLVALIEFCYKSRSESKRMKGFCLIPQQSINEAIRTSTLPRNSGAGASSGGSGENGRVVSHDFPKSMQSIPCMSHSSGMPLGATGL
# T5 sequence (Q13002 32-908): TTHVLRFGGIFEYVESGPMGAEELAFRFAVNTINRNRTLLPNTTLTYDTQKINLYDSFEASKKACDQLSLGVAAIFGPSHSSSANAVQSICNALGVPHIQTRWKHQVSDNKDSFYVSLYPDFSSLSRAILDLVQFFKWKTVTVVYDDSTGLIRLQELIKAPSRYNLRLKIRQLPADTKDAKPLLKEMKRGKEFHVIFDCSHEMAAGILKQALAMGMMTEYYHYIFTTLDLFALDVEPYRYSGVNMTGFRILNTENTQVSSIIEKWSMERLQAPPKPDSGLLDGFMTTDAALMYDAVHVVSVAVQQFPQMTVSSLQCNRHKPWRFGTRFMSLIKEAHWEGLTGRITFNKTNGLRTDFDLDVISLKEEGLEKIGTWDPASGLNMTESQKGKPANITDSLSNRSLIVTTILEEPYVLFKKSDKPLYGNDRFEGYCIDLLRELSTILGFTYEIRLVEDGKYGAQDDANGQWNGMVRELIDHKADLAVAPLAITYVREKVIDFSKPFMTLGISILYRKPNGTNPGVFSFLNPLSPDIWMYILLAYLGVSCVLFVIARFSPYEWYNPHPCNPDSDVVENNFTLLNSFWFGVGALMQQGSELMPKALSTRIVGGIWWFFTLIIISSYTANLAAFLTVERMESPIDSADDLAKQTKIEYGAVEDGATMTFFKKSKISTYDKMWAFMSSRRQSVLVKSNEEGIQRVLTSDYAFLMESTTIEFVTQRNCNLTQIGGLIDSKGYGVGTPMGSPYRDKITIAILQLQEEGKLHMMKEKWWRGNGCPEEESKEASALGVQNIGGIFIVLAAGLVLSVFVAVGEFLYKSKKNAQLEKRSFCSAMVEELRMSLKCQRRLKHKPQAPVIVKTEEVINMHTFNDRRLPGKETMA
compound,measurement,setting,value
"CC(C)(C)c1onc(O)c1CC(N)C(=O)O (centres unmarked) [ATPA, 2-amino-3-(3-hydroxy-5-tert-butylisoxazol-4-yl)propanoic acid]",Estimated activity (Ki) GluR4,[1],15.747 µM
same,Estimated activity (Ki) GluR2,[2],38.616 µM
same,effect on synaptic inhibition onto CA1 pyramidal neurons,[3],reduces synaptic inhibition onto CA1 pyramidal neurons
same,Estimated activity (Ki) GluR5,"[4]; HEK293 cells stably transfected with human GluR5, displacement of 3[H] kainate",0.0031 µM
same,fold less potent on other human AMPA and kainate receptors than on human GluR5 in binding studies,"[4]; binding studies, GluR5 vs other human AMPA and kainate receptors",more than 1000 fold
same,Estimated activity (Ki) GluR7,[5],14.319 µM
same,Estimated activity (Ki) GluR6,[6],> 1000 µM
same,Estimated activity (Ki) KA2,[7],38.832 µM
same,EC50,[8],> 300 µM
same,EC50,[9],> 300 µM
same,EC50,[10],> 300 µM
same,EC50,[11],> 300 µM
same,EC50,"[12]; HEK293 cells, human GluR5, patch-clamp, vs 100 mμ KA",4 ± 0.7 µM
same,fold less potent on other human AMPA and kainate receptors than on human GluR5 and rat DRG neurons in electrophysiological studies,"[12]; electrophysiological studies, GluR5 and rat DRG neurons vs other human AMPA and kainate receptors",100 fold
same,EC50,[13],> 300 µM
same,Estimated activity (Ki) GluR1,[14],17.59 µM
same,EC50,[15],0.56 µM
